Measured values published in US9290485B2, “N-((6-amino-pyridin-3-yl)methyl)-heteroaryl-carboxamides” (NOVARTIS AG, priority 2010, dated 2016).

Each compound was assayed against human plasma kallikrein (Homo sapiens (Human), UniProt P03952). Settings: human plasma kallikrein 25 pM, substrate 0.5 uM, 1 hour pre-incubation at room temperature, read at t=60 min.
Sequence of human plasma kallikrein (P03952 whole entry, looked up): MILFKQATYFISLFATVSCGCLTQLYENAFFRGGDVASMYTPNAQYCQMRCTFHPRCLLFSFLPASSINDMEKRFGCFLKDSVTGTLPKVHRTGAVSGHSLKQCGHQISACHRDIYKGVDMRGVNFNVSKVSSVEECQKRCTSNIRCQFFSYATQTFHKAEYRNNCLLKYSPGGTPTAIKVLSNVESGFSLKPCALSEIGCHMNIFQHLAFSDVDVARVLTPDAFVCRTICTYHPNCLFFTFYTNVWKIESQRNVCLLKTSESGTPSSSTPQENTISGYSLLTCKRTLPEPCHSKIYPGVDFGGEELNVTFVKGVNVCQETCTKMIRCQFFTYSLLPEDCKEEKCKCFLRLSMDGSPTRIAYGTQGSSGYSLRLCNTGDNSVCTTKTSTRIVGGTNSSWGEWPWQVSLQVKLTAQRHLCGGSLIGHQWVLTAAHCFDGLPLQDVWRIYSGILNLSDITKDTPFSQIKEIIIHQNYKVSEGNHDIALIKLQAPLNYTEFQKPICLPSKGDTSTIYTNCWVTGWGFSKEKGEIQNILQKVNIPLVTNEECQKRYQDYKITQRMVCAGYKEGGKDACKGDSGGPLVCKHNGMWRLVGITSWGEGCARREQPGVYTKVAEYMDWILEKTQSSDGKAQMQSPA
Sequence of human plasma kallikrein (P03952 whole entry partner, looked up): as the sequence (P03952 whole entry, looked up) above
Protocol: All other chemicals were of analytical grade.
A stock solution of 0.17 mg/ml deinonized water was stored at −80° C. Enzymatic reactions were conducted in ‘assay buffer’, comprising 50 mM Hepes/NaOH at pH 7.8, 150 mM NaCl, 1 mM EDTA and 0.05% (w/v) CHAPS.
Both, enzyme and substrate were diluted in assay buffer.
All protein and peptide containing solutions were handled in siliconized tubes (Life Systems Design, Merenschwand, Switzerland). […] Plate measurements were conducted by the means of a Safire2 reader (TECAN, Maennedorf, Switzerland). The Safire2 is a monochomator-based instrument and wavelengths of 485 nm and 535 nm were taken for fluorescence excitation and emission acquisition, respectively. The bandwidths were set to 10 nm in both the excitation and the emission path. The fluorescence in each well was excited by three flashes per measurement.
The test compound was dissolved in 90% (v/v) DMSO/water. For the assays, 250 nL of the 90% (v/v) DMSO/water solution or compound solution were added per well, followed by the addition of 12.5 μl protease solution (protease in assay buffer). […] After 1 hour of pre-incubation at room temperature, the reactions were started by the addition of 12.5 μl substrate solution (in assay buffer, final assay concentration was 0.5 uM). After the addition of the substrate solution, the final DMSO concentration in the assay was 0.9% (v/v). […] The IC50 value was calculated from the plot of percentage of inhibition vs. inhibitor concentration by a logistics fit according to the following equation: y=A2+(A1−A2)/(1+(x/IC50)^p) where y is the %-inhibition at the inhibitor concentration, x. A1 is the lowest inhibition value, i.e. 0%, and A2 the maximum inhibition value, i.e. 100%. The exponent, p, is the Hill coefficient. The curve fitting was conducted with the non-linear regression routine of the analysis software Origin 7.55R6 (OriginLab Corporation).

Row | Compound | IC50 [nM]
1 | Cc1cc(N)nc(C)c1CNC(=O)c1cn(Cc2ccc(-n3cccn3)cc2)nn1 [Example 41, 1-(4-(1H-pyrazol-1-yl)benzyl)-N-((6-amino-2,4-dimethylpyridin-3-yl)methyl]-1H-1,2,3-triazole-4-carboxamide] | 108
2 | Cc1cc(N)nc(C)c1CNC(=O)c1cc(Cc2ccccc2)no1 [Example 3, N-((6-amino-2,4-dimethylpyridin-3-yl)methyl)-3-benzylisoxazole-5-carboxamide] | 2260
3 | Cc1cncc(Oc2ccc(Cn3cc(C(=O)NCc4c(C)cc(N)nc4C)cn3)cc2)n1 [Example 57, N-((6-amino-2,4-dimethylpyridin-3-yl)methyl)-1-(4-(6-methylpyrazin-2-yloxy)benzyl)-1H-pyrazole-4-carboxamide] | 144
4 | Cc1cc(N)nc(C)c1CNC(=O)c1cc(C)n(C(C)c2ccccc2)c1C (stereo not drawn) [Example 51, N-((6-amino-2,4-dimethylpyridin-3-yl)methyl)-2,5-dimethyl-1-(1-phenylethyl)-1H-pyrrole-3-carboxamide] | 7000
5 | Cc1cc(N)nc(C)c1CNC(=O)c1ccn(S(=O)(=O)c2cccc(-c3ncccn3)c2)c1 [Example 132, N-((6-amino-2,4-dimethylpyridin-3-yl)methyl)-1-(3-(pyrimidin-2-yl)phenylsulfonyl)-1H-pyrrole-3-carboxamide] | 71
6 | Cc1cc(N)nc(C)c1CNC(=O)c1cn(Cc2ccccc2)c2ccccc12 [Example 108, N-((6-amino-2,4-dimethylpyridin-3-yl)methyl)-1-benzyl-1H-indole-3-carboxamide] | 798
7 | Cc1cc(N)nc(C)c1CNC(=O)c1ncn(Cc2ccc(Oc3ccccc3)cc2)n1 [Example 63, N-((6-amino-2,4-dimethylpyridin-3-yl)methyl)-1-(4-phenoxybenzyl)-1H-1,2,4-triazole-3-carboxamide] | 11
8 | Cc1cc(N)nc(C)c1CNC(=O)c1cnn(Cc2ccc(F)c(F)c2)c1 [Example 90, N-((6-amino-2,4-dimethylpyridin-3-yl)methyl)-1-(3,4-difluorobenzyl)-1H-pyrazole-4-carboxamide] | 2000
9 | Cc1cccc(Cn2cc(C(=O)NCc3c(C)cc(N)nc3C)cn2)n1 [Example 86, N-((6-amino-2,4-dimethylpyridin-3-yl)methyl)-1-((6-methylpyridin-2-yl)methyl)-1H-pyrazole-4-carboxamide] | 7500
10 | Cc1cc(N)nc(C)c1CNC(=O)c1cnn(Cc2cnc3ccccc3c2)c1 [Example 155, N-((6-amino-2,4-dimethylpyridin-3-yl)methyl)-1-(quinolin-3-ylmethyl)-1H-pyrazole-4-carboxamide] | 3
11 | COCCOc1cc(N)nc(C)c1CNC(=O)c1cnn(Cc2ccccc2)c1 [Example 60, N-((6-amino-4-(2-methoxyethoxy)-2-methylpyridin-3-yl)methyl)-1-benzyl-1H-pyrazole-4-carboxamide] | 379
12 | Cc1ccc2cc(Cc3nc(C(=O)NCc4c(C)cc(N)nc4C)co3)ccc2n1 [Example 170, N-((6-amino-2,4-dimethylpyridin-3-yl)methyl)-2-((2-methylquinolin-6-yl)methyl)oxazole-4-carboxamide] | 9.7
13 | Cc1cc(N)nc(C)c1CNC(=O)c1cnn(Cc2ccc(CN3C(=O)CCC3=O)cc2)c1 [Example 17, N-((6-amino-2,4-dimethylpyridin-3-yl)methyl)-1-(4-((2,5-dioxopyrrolidin-1-yl)methyl)benzyl)-1H-pyrazole-4-carboxamide] | 98
14 | Cc1nc(N)cc(OCC(=O)C(C)(C)C)c1CNC(=O)c1cnn(Cc2ccc3ccccc3c2)c1 [Example 149, N-((6-amino-4-(3,3-dimethyl-2-oxobutoxy)-2-methylpyridin-3yl)methyl)-1-(naphthalen-2-ylmethyl)-1H-pyrazole-4-carboxamide] | 7.8
15 | Cc1cc(N)nc(C)c1CNC(=O)c1cnn(Cc2ccccc2Cl)c1 [Example 87, N-((6-amino-2,4-dimethylpyridin-3-yl)methyl)-1-(2-chlorobenzyl)-1H-pyrazole-4-carboxamide] | 1300
